Assay results as given in patent publication US20230374177A1, “CYTOSOLIC MICROPARTICLES, PHAGOCYTIC CELLS COMPRISING THE SAME, AND METHODS FOR TREATING DISEASE COMPRISING THE SAME” (Florida State University Research Foundation, Inc., priority 2022, published 2023).

System: RAW264.7 macrophages
Test: Effects of factors on phagosomal rupture at 22° C.
Format: cell-based
Settings: 22° C. cold shock; chloroquine 100 μM 30 min, tetrandrine 5 μM 30 min, colchicine 5 μM 3 h, LLOMe 1 mM 30 min, hypotonic shock 0.6×PBS
Protocol: Incubation of macrophages with microparticles. […] A prewarmed suspension of macrophages in the complete medium (3.5×10^5 cells/mL, 1 mL, 37° C.) supplemented with LPS (1 μg/mL) was added into a chamber and incubated (5% CO2, 37° C.) for the specified period.
Control. […] After 3 h, the complete medium was replaced with PBS (1 mL, 22° C.) and maintained for 2 min before being imaged.
Hypotonic shock. 0.6×PBS was prepared by mixing PBS with H2O (volume ratio=6:4). […] After 3 h, the complete medium was replaced with the 0.6×PBS (1 mL, 22° C.) and maintained for 2 min before being imaged.
Chloroquine. […] After 2.5 h, chloroquine (10 mM in DMEM) was added to the culture to reach 100 μM and further incubated (5% CO2, 37° C.) for 30 min. The complete medium was replaced with PBS (1 mL, 22° C.) and maintained for 2 min before being imaged.
Tetrandrine. […] After 2.5 h, tetrandrine (5 mM in DMSO) was added to the culture to reach 5 μM and further incubated (5% CO2, 37° C.) for 30 min. The complete medium was replaced with PBS (1 mL, 22° C.) and maintained for 2 min before being imaged.
Colchicine. […] After 3 h, colchicine (2.5 mM in DMEM) was added to the culture at 5 μM and further incubated (5% CO2, 37° C.) for 3 h. The complete medium was replaced with PBS (1 mL, 22° C.) and maintained for 2 min before being imaged.
LLOMe. […] After 2.5 h, LLOMe (10 mM in DMEM) was added to the culture at 1 mM and further incubated (5% CO2, 37° C.) for 30 min. The complete medium was replaced with PBS (1 mL, 22° C.) and maintained for 2 min before being imaged.
For each factor, an experiment was conducted to study its effect. […] Exposure of the macrophages to each factor was conducted either during or before the cold shock.

Row | SMILES | effect on percentage of phagosomal rupture at 22° C. compared to the control
1 | CCN(CC)CCCC(C)Nc1ccnc2cc(Cl)ccc12 (stereo not drawn) [Chloroquine] | did not induce a significant effect
2 | COc1cc2c(c(OC)c1OC)-c1ccc(OC)c(=O)cc1[C@@H](NC(C)=O)CC2 [Colchicine] | insignificant
3 | COC(=O)[C@H](CC(C)C)NC(=O)[C@@H](N)CC(C)C.Cl [LLOMe, L-Leucyl-L-leucine methyl ester hydrochloride] | significantly increased
